Measurements taken from US9944602B2, “Piperidinone herbicides” (E. I. DU PONT DE NEMOURS AND COMPANY, priority 2014, dated 2018).

What was measured:
Type in all cases: in vivo
[1] = test system: barnyardgrass (Echinochloa crus-galli); test: Test A postemergence barnyardgrass; conditions: 0 to 100 scale, 0 is no effect, 100 is complete control
Procedure, shortened: (§1)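 Scores are visual injury ratings on a 0–100 scale (100 = complete control) taken about 10 d after treatment, relative to untreated greenhouse controls. Preemergence: directed soil spray over planted seeds in loam/sand; postemergence: spray onto one- to two-leaf plants 2–10 cm high; surfactant-containing solvent formulation.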

[2] = test system: foxtail, giant (giant foxtail, Setaria faberii); test: Test A postemergence foxtail, giant; conditions: 0 to 100 scale, 0 is no effect, 100 is complete control
Procedure, shortened: as §1

[3] = test system: sedge, umbrella (small-flower umbrella sedge, Cyperus difformis); test: Test B flooded paddy test sedge, umbrella; conditions: Table B, Flood
Procedure, shortened: (§2)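 Water-applied paddy treatment: compound dosed into 3 cm flood on 2-leaf plants, read visually versus controls after 13 to 15 d.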

[4] = test system: wheat (Triticum aestivum); test: Test A postemergence wheat; conditions: 0 to 100 scale, 0 is no effect, 100 is complete control
Procedure, shortened: as §1

corn (Zea mays) = test: Test A postemergence corn; conditions: 0 to 100 scale, 0 is no effect, 100 is complete control
Procedure, shortened: as §1

[5] = test system: barnyardgrass (Echinochloa crus-galli); test: Test A preemergence barnyardgrass; conditions: 0 to 100 scale
Procedure, shortened: as §1

kochia (Kochia scoparia) [6] = test: Test A postemergence kochia; conditions: 0 to 100 scale, 0 is no effect, 100 is complete control
Procedure, shortened: as §1

[7] = test system: pigweed (Amaranthus retroflexus); test: Test A preemergence pigweed; conditions: 0 to 100 scale, 0 no effect, 100 complete control
Procedure, shortened: as §1

[8] = test system: foxtail, giant (giant foxtail, Setaria faberii); test: Test A preemergence foxtail, giant; conditions: 0 to 100 scale, 0 no effect, 100 complete control
Procedure, shortened: as §1

[9] = test system: ryegrass, Italian (Italian ryegrass, Lolium multiflorum); test: Test A preemergence ryegrass, Italian; conditions: 0 to 100 scale, 0 no effect, 100 complete control
Procedure, shortened: as §1

[10] = test system: ragweed (common ragweed, Ambrosia elatior); test: Test A preemergence ragweed; conditions: 0 to 100 scale, 0 no effect, 100 complete control
Procedure, shortened: as §1

rice (Oryza sativa) [11] = test: Test B flooded paddy test rice; conditions: Table B, Flood
Procedure, shortened: as §2

[12] = test system: barnyardgrass (Echinochloa crus-galli); test: Test B flooded paddy test barnyardgrass; conditions: Table B, Flood
Procedure, shortened: as §2

[13] = test system: sedge, umbrella (small-flower umbrella sedge, Cyperus difformis); test: Test C flooded paddy test sedge, umbrella; conditions: Table C, Flood, scale 0 to 100
From the text: (§3) Plant species in the flooded paddy test consisted of rice (Oryza sativa), sedge, umbrella (small-flower umbrella sedge, Cyperus difformis), ducksalad (Heteranthera limosa), and barnyardgrass (Echinochloa crus-galli) grown to the 2-leaf stage for testing. At time of treatment, test pots were flooded to 3 cm above the soil surface, treated by application of test compounds directly to the paddy water, and then maintained at that water depth for the duration of the test. Treated plants and controls were maintained in a greenhouse for 13 to 15 d, after which time all species were compared to controls and visually evaluated. Plant response ratings, summarized in Table C, are based on a scale of 0 to 100 where 0 is no effect and 100 is complete control. A dash (-) response means no test result.

[14] = test system: galium (catchweed bedstraw, Galium aparine); test: Test A postemergence galium; conditions: 0 to 100 scale, 0 is no effect, 100 is complete control
Procedure, shortened: as §1

kochia (Kochia scoparia) [15] = test: Test A preemergence kochia; conditions: 0 to 100 scale, 0 no effect, 100 complete control
Procedure, shortened: as §1

[16] = test system: ducksalad (Heteranthera limosa); test: Test C flooded paddy test ducksalad; conditions: Table C, Flood, scale 0 to 100
From the text: as §3

[17] = test system: ryegrass, Italian (Italian ryegrass, Lolium multiflorum); test: Test A postemergence ryegrass, Italian; conditions: 0 to 100 scale, 0 is no effect, 100 is complete control
Procedure, shortened: as §1

[18] = test system: pigweed (Amaranthus retroflexus); test: Test A postemergence pigweed; conditions: 0 to 100 scale, 0 is no effect, 100 is complete control
Procedure, shortened: as §1

[19] = test system: blackgrass (Alopecurus myosuroides); test: Test A postemergence blackgrass; conditions: 0 to 100 scale, 0 is no effect, 100 is complete control
Procedure, shortened: as §1

[20] = test system: ducksalad (Heteranthera limosa); test: Test B flooded paddy test ducksalad; conditions: Table B, Flood
Procedure, shortened: as §2

[21] = test system: barnyardgrass (Echinochloa crus-galli); test: Test C flooded paddy test barnyardgrass; conditions: Table C, Flood, scale 0 to 100
From the text: as §3

[22] = test system: ragweed (common ragweed, Ambrosia elatior); test: Test A postemergence ragweed; conditions: 0 to 100 scale, 0 is no effect, 100 is complete control
Procedure, shortened: as §1

rice (Oryza sativa) [23] = test: Test C flooded paddy test rice; conditions: Table C, Flood, scale 0 to 100
From the text: as §3

Compound: O=C1NCCC(c2cccc(C(F)(F)F)c2)C1C(=O)Nc1ccc(F)c(F)c1F (racemic) [Compound 28]
- Plant response rating, Barnyardgrass ([1]; 125 g ai/ha): 60
- Plant response rating, Barnyardgrass ([1]; 500 g ai/ha): 80
- Plant response rating, Foxtail, Giant ([2]; 125 g ai/ha): 70
- Plant response rating, Foxtail, Giant ([2]; 500 g ai/ha): 90
- Plant response rating ([3]; 500 g ai/ha, scale 0 to 100): 0
- Plant response rating, Wheat ([4]; 125 g ai/ha): 0
- Plant response rating, Wheat ([4]; 500 g ai/ha): 20
- Plant response rating, Corn (corn (Zea mays); 125 g ai/ha): 30
- Plant response rating, Corn (corn (Zea mays); 500 g ai/ha): 60
- Barnyardgrass plant response rating ([5]; 125 g ai/ha, 0 no effect, 100 complete control): 90
- Barnyardgrass plant response rating ([5]; 500 g ai/ha, 0 no effect, 100 complete control): 90
- Plant response rating, Kochia (kochia (Kochia scoparia) [6]; 125 g ai/ha): 0
- Plant response rating, Kochia (kochia (Kochia scoparia) [6]; 500 g ai/ha): 0
- Pigweed plant response rating ([7]; 125 g ai/ha): 0
- Pigweed plant response rating ([7]; 500 g ai/ha): 20
- Foxtail, Giant plant response rating ([8]; 125 g ai/ha): 90
- Foxtail, Giant plant response rating ([8]; 500 g ai/ha): 90
- Ryegrass, Italian plant response rating ([9]; 125 g ai/ha): 20
- Ryegrass, Italian plant response rating ([9]; 500 g ai/ha): 40
- Ragweed plant response rating ([10]; 125 g ai/ha): 0
- Ragweed plant response rating ([10]; 500 g ai/ha): 0
- Plant response rating (rice (Oryza sativa) [11]; 500 g ai/ha, scale 0 to 100): 15
- Plant response rating ([12]; 500 g ai/ha, scale 0 to 100): 100
- Plant response rating ([13]; 31 g ai/ha): 0
- Plant response rating ([13]; 62 g ai/ha): 0
- Plant response rating ([13]; 125 g ai/ha): 0
- Plant response rating ([13]; 250 g ai/ha): 0
- Plant response rating, Galium ([14]; 125 g ai/ha): 0
- Plant response rating, Galium ([14]; 500 g ai/ha): 0
- Kochia plant response rating (kochia (Kochia scoparia) [15]; 125 g ai/ha): 20
- Kochia plant response rating (kochia (Kochia scoparia) [15]; 500 g ai/ha): 20
- Plant response rating ([16]; 31 g ai/ha): 45
- Plant response rating ([16]; 62 g ai/ha): 50
- Plant response rating ([16]; 125 g ai/ha): 60
- Plant response rating ([16]; 250 g ai/ha): 70
- Plant response rating, Ryegrass, Italian ([17]; 125 g ai/ha): 0
- Plant response rating, Ryegrass, Italian ([17]; 500 g ai/ha): 0
- Plant response rating, Pigweed ([18]; 125 g ai/ha): 0
- Plant response rating, Pigweed ([18]; 500 g ai/ha): 0
- Plant response rating, Blackgrass ([19]; 125 g ai/ha): 0
- Plant response rating, Blackgrass ([19]; 500 g ai/ha): 20
- Plant response rating ([20]; 500 g ai/ha, scale 0 to 100): 85
- Plant response rating ([21]; 31 g ai/ha): 60
- Plant response rating ([21]; 62 g ai/ha): 65
- Plant response rating ([21]; 125 g ai/ha): 70
- Plant response rating ([21]; 250 g ai/ha): 75
- Plant response rating, Ragweed ([22]; 125 g ai/ha): 0
- Plant response rating, Ragweed ([22]; 500 g ai/ha): 0
- Plant response rating (rice (Oryza sativa) [23]; 31 g ai/ha): 0
- Plant response rating (rice (Oryza sativa) [23]; 62 g ai/ha): 0
- Plant response rating (rice (Oryza sativa) [23]; 125 g ai/ha): 0
- Plant response rating (rice (Oryza sativa) [23]; 250 g ai/ha): 0

Compound: O=C1NCCC(c2cccc(C(F)(F)F)c2)C1C(=O)Nc1cccc(F)c1F (stereo not shown) [Compound 9, N-(2,3-difluorophenyl)-2-oxo-4-[3-(trifluoromethyl)phenyl]-3-piperidinecarboxamide]
- pest or weed control at 125 g/ha ([1]; Echinochloa crus-galli, post-emergence, 240 h, 125 g ai/ha, read-out: Plant response rating, Barnyardgrass): 80%
- pest or weed control at 500 g/ha ([1]; Echinochloa crus-galli, post-emergence, 240 h, 500 g ai/ha, read-out: Plant response rating, Barnyardgrass): 90%
- pest or weed control at 125 g/ha ([2]; Setaria faberi, post-emergence, 240 h, 125 g ai/ha, read-out: Plant response rating, Foxtail, Giant): 80%
- pest or weed control at 500 g/ha ([2]; Setaria faberi, post-emergence, 240 h, 500 g ai/ha, read-out: Plant response rating, Foxtail, Giant): 90%
- pest or weed control at 250 g/ha ([3]; Cyperus difformis, 250 g ai/ha, scale 0 to 100, read-out: Plant response rating): 0%
- plant injury at 125 g/ha ([4]; Triticum aestivum, post-emergence, 240 h, 125 g ai/ha, read-out: Plant response rating, Wheat): 20%
- plant injury at 500 g/ha ([4]; Triticum aestivum, post-emergence, 240 h, 500 g ai/ha, read-out: Plant response rating, Wheat): 40%
- Corn plant response rating (crop injury, 0 = no effect, 100 = complete kill) at 125 g/ha (corn (Zea mays); Zea mays, post-emergence, 240 h, 125 g ai/ha): 40%
- Corn plant response rating (crop injury, 0 = no effect, 100 = complete kill) at 500 g/ha (corn (Zea mays); Zea mays, post-emergence, 240 h, 500 g ai/ha): 80%
- Plant response rating, Barnyardgrass ([5]; 500 g ai/ha, 0 is no effect, 100 is complete control): 90
- pest or weed control at 125 g/ha ([5]; Echinochloa crus-galli, pre-emergence, 240 h, 125 g ai/ha, 0 no effect, 100 complete control, read-out: Barnyardgrass plant response rating): 90%
- pest or weed control at 125 g/ha ([7]; Amaranthus retroflexus, pre-emergence, 240 h, 125 g ai/ha, read-out: Pigweed plant response rating): 0%
- pest or weed control at 500 g/ha ([7]; Amaranthus retroflexus, pre-emergence, 240 h, 500 g ai/ha, read-out: Pigweed plant response rating): 0%
- pest or weed control at 125 g/ha ([8]; Setaria faberi, pre-emergence, 240 h, 125 g ai/ha, read-out: Foxtail, Giant plant response rating): 90%
- pest or weed control at 500 g/ha ([8]; Setaria faberi, pre-emergence, 240 h, 500 g ai/ha, read-out: Foxtail, Giant plant response rating): 90%
- plant injury at 250 g/ha (rice (Oryza sativa) [11]; Oryza sativa, 250 g ai/ha, scale 0 to 100, read-out: Plant response rating): 0%
- pest or weed control at 250 g/ha ([12]; Echinochloa crus-galli, 250 g ai/ha, scale 0 to 100, read-out: Plant response rating): 75%
- Plant response rating ([13]; 1000 g ai/ha): 0
- Plant response rating ([16]; 1000 g ai/ha): 98
- pest or weed control at 125 g/ha ([18]; Amaranthus retroflexus, post-emergence, 240 h, 125 g ai/ha, read-out: Plant response rating, Pigweed): 0%
- pest or weed control at 500 g/ha ([18]; Amaranthus retroflexus, post-emergence, 240 h, 500 g ai/ha, read-out: Plant response rating, Pigweed): 0%
- pest or weed control at 250 g/ha ([20]; Heteranthera limosa, 250 g ai/ha, scale 0 to 100, read-out: Plant response rating): 90%
- Plant response rating ([21]; 1000 g ai/ha): 80
- Plant response rating (rice (Oryza sativa) [23]; 1000 g ai/ha): 10
